# Laboratory results as given in the supplement of paper PMC8671470.
# Tested on: myeloid leukemia patient primary cells Pat.4
# Test: cell viability (% survival relative to DMSO control); higher = less cytotoxic
# Settings: 100 nM; 72 h
# Outline: (§1)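 Thawed mononuclear cells from AML or CML patients were purified on Ficoll and cultured for 72 h in RPMI 1640 with 10% FBS, at 10,000 cells/well, on 384-well plates carrying 70 pre-printed compounds at 1–10,000 nM in five tenfold steps, in duplicate. Viability came from CellTiter-Glo, normalised against DMSO and against 10 μM proteasome inhibitor. Any area under the curve given was derived from log-logistic curve fits in the drc and PharmacoGx R packages, and these fits had four parameters.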
row,Structure (SMILES),cell viability [%]
1,Nc1ccn([C@@H]2O[C@H](CO)[C@@H](O)C2(F)F)c(=O)n1 [Gemcitabine],82.8
2,Clc1cc(Cl)c(OCC#CI)cc1Cl [Haloprogin],85.3
3,O=c1[nH]c(=O)n([C@H]2C[C@H](O)[C@@H](CO)O2)cc1I [Idoxuridine],89.8

# Same assay, conditions: 1000 nM; 72 h
row,Structure (SMILES),cell viability [%]
1,O=C(Cc1cccc(OC(F)(F)F)c1)Nc1ccc(CCCCc2nnc(NC(=O)Cc3ccccn3)s2)nn1 [CB-839],61
2,O=C(/C=C/c1cccnc1)NCCCCC1CCN(C(=O)c2ccccc2)CC1 [Daporinad],2.08
3,Nc1ccn([C@@H]2O[C@H](CO)[C@@H](O)C2(F)F)c(=O)n1 [Gemcitabine],62.2
4,Clc1cc(Cl)c(OCC#CI)cc1Cl [Haloprogin],13
5,O=c1[nH]c(=O)n([C@H]2C[C@H](O)[C@@H](CO)O2)cc1I [Idoxuridine],68.2

# Same assay, conditions: 10000 nM; 72 h
row,Structure (SMILES),cell viability [%]
1,O=C(Cc1cccc(OC(F)(F)F)c1)Nc1ccc(CCCCc2nnc(NC(=O)Cc3ccccn3)s2)nn1 [CB-839],75.4
2,O=C(/C=C/c1cccnc1)NCCCCC1CCN(C(=O)c2ccccc2)CC1 [Daporinad],0.709
3,Nc1ccn([C@@H]2O[C@H](CO)[C@@H](O)C2(F)F)c(=O)n1 [Gemcitabine],32.2
4,Clc1cc(Cl)c(OCC#CI)cc1Cl [Haloprogin],28.3
5,O=c1[nH]c(=O)n([C@H]2C[C@H](O)[C@@H](CO)O2)cc1I [Idoxuridine],93.1

# Tested on: myeloid leukemia patient primary cells Pat.5
# Test: as above
# Settings: 1 nM; 72 h
# Outline: as §1
row,Structure (SMILES),cell viability [%]
1,O=C(Cc1cccc(OC(F)(F)F)c1)Nc1ccc(CCCCc2nnc(NC(=O)Cc3ccccn3)s2)nn1 [CB-839],17.1
2,O=C(/C=C/c1cccnc1)NCCCCC1CCN(C(=O)c2ccccc2)CC1 [Daporinad],0.265
3,Nc1ccn([C@@H]2O[C@H](CO)[C@@H](O)C2(F)F)c(=O)n1 [Gemcitabine],4.78
4,Clc1cc(Cl)c(OCC#CI)cc1Cl [Haloprogin],87.2
5,O=c1[nH]c(=O)n([C@H]2C[C@H](O)[C@@H](CO)O2)cc1I [Idoxuridine],45.5

# Same assay, conditions: 10 nM; 72 h
row,Structure (SMILES),cell viability [%]
1,O=C(Cc1cccc(OC(F)(F)F)c1)Nc1ccc(CCCCc2nnc(NC(=O)Cc3ccccn3)s2)nn1 [CB-839],53.9
2,O=C(/C=C/c1cccnc1)NCCCCC1CCN(C(=O)c2ccccc2)CC1 [Daporinad],< 0
3,Nc1ccn([C@@H]2O[C@H](CO)[C@@H](O)C2(F)F)c(=O)n1 [Gemcitabine],2.01
4,Clc1cc(Cl)c(OCC#CI)cc1Cl [Haloprogin],69.7
5,O=c1[nH]c(=O)n([C@H]2C[C@H](O)[C@@H](CO)O2)cc1I [Idoxuridine],10.2

# Same assay, conditions: 100 nM; 72 h
row,Structure (SMILES),cell viability [%]
1,O=C(Cc1cccc(OC(F)(F)F)c1)Nc1ccc(CCCCc2nnc(NC(=O)Cc3ccccn3)s2)nn1 [CB-839],2.39
2,O=C(/C=C/c1cccnc1)NCCCCC1CCN(C(=O)c2ccccc2)CC1 [Daporinad],9.08
3,Nc1ccn([C@@H]2O[C@H](CO)[C@@H](O)C2(F)F)c(=O)n1 [Gemcitabine],88.3
4,Clc1cc(Cl)c(OCC#CI)cc1Cl [Haloprogin],2.24
5,O=c1[nH]c(=O)n([C@H]2C[C@H](O)[C@@H](CO)O2)cc1I [Idoxuridine],87.4

# Same assay, conditions: 1000 nM; 72 h
row,Structure (SMILES),cell viability [%]
1,O=C(Cc1cccc(OC(F)(F)F)c1)Nc1ccc(CCCCc2nnc(NC(=O)Cc3ccccn3)s2)nn1 [CB-839],5.69
2,O=C(/C=C/c1cccnc1)NCCCCC1CCN(C(=O)c2ccccc2)CC1 [Daporinad],< 0
3,Nc1ccn([C@@H]2O[C@H](CO)[C@@H](O)C2(F)F)c(=O)n1 [Gemcitabine],27.6
4,Clc1cc(Cl)c(OCC#CI)cc1Cl [Haloprogin],< 0
5,O=c1[nH]c(=O)n([C@H]2C[C@H](O)[C@@H](CO)O2)cc1I [Idoxuridine],17.2

# Same assay, conditions: 10000 nM; 72 h
row,Structure (SMILES),cell viability [%]
1,O=C(Cc1cccc(OC(F)(F)F)c1)Nc1ccc(CCCCc2nnc(NC(=O)Cc3ccccn3)s2)nn1 [CB-839],19.5
2,O=C(/C=C/c1cccnc1)NCCCCC1CCN(C(=O)c2ccccc2)CC1 [Daporinad],< 0
3,Nc1ccn([C@@H]2O[C@H](CO)[C@@H](O)C2(F)F)c(=O)n1 [Gemcitabine],2.39
4,Clc1cc(Cl)c(OCC#CI)cc1Cl [Haloprogin],0.912
5,O=c1[nH]c(=O)n([C@H]2C[C@H](O)[C@@H](CO)O2)cc1I [Idoxuridine],46.7

# Tested on: myeloid leukemia patient primary cells Pat.6
# Test: as above
# Settings: 1 nM; 72 h
# Outline: as §1
row,Structure (SMILES),cell viability [%]
1,O=C(Cc1cccc(OC(F)(F)F)c1)Nc1ccc(CCCCc2nnc(NC(=O)Cc3ccccn3)s2)nn1 [CB-839],91.7
2,O=C(/C=C/c1cccnc1)NCCCCC1CCN(C(=O)c2ccccc2)CC1 [Daporinad],60.3
3,Nc1ccn([C@@H]2O[C@H](CO)[C@@H](O)C2(F)F)c(=O)n1 [Gemcitabine],77.8
4,Clc1cc(Cl)c(OCC#CI)cc1Cl [Haloprogin],> 100
5,O=c1[nH]c(=O)n([C@H]2C[C@H](O)[C@@H](CO)O2)cc1I [Idoxuridine],97.7

# Same assay, conditions: 10 nM; 72 h
row,Structure (SMILES),cell viability [%]
1,O=C(Cc1cccc(OC(F)(F)F)c1)Nc1ccc(CCCCc2nnc(NC(=O)Cc3ccccn3)s2)nn1 [CB-839],94.9
2,O=C(/C=C/c1cccnc1)NCCCCC1CCN(C(=O)c2ccccc2)CC1 [Daporinad],51.7
3,Nc1ccn([C@@H]2O[C@H](CO)[C@@H](O)C2(F)F)c(=O)n1 [Gemcitabine],84
4,Clc1cc(Cl)c(OCC#CI)cc1Cl [Haloprogin],> 100
5,O=c1[nH]c(=O)n([C@H]2C[C@H](O)[C@@H](CO)O2)cc1I [Idoxuridine],97.7

# Same assay, conditions: 100 nM; 72 h
row,Structure (SMILES),cell viability [%]
1,O=C(Cc1cccc(OC(F)(F)F)c1)Nc1ccc(CCCCc2nnc(NC(=O)Cc3ccccn3)s2)nn1 [CB-839],79.1
2,O=C(/C=C/c1cccnc1)NCCCCC1CCN(C(=O)c2ccccc2)CC1 [Daporinad],24.6
3,Nc1ccn([C@@H]2O[C@H](CO)[C@@H](O)C2(F)F)c(=O)n1 [Gemcitabine],98.2
4,Clc1cc(Cl)c(OCC#CI)cc1Cl [Haloprogin],93.3
5,O=c1[nH]c(=O)n([C@H]2C[C@H](O)[C@@H](CO)O2)cc1I [Idoxuridine],99.8

# Same assay, conditions: 1000 nM; 72 h
row,Structure (SMILES),cell viability [%]
1,O=C(Cc1cccc(OC(F)(F)F)c1)Nc1ccc(CCCCc2nnc(NC(=O)Cc3ccccn3)s2)nn1 [CB-839],84.9
2,O=C(/C=C/c1cccnc1)NCCCCC1CCN(C(=O)c2ccccc2)CC1 [Daporinad],25.6
3,Nc1ccn([C@@H]2O[C@H](CO)[C@@H](O)C2(F)F)c(=O)n1 [Gemcitabine],91.2
4,Clc1cc(Cl)c(OCC#CI)cc1Cl [Haloprogin],54.7
5,O=c1[nH]c(=O)n([C@H]2C[C@H](O)[C@@H](CO)O2)cc1I [Idoxuridine],83.2

# Same assay, conditions: 10000 nM; 72 h
row,Structure (SMILES),cell viability [%]
1,O=C(Cc1cccc(OC(F)(F)F)c1)Nc1ccc(CCCCc2nnc(NC(=O)Cc3ccccn3)s2)nn1 [CB-839],90.9
